The values that follow come from ChEMBL document CHEMBL1126430, “The role of arginine in interactions of microcystins with protein phosphatases 1 and 2a” (Bioorg Med Chem Lett, 1992).

A short description of test [1]: Effective dose that causes 50 % inhibition of protein phosphatase 2A (PP2A), isolated from mouse skin.
The nature of test [2]: Compound was evaluated for the ability to inhibit dephosphorylation of [32P]phosphorylase by Protein phosphatase 1.
A short description of test [3]: Compound was evaluated for the ability to inhibit specific [3H]-okadaic acid binding to Protein phosphatase 1.
Test [4] in a line: Compound was evaluated for the ability to inhibit dephosphorylation of [32P]phosphorylase by protein phosphatase 2A (PP2A).
Test [5] in a line: Compound was evaluated for the ability to inhibit specific [3H]-okadaic acid binding to protein phosphatase 2A (PP2A).

SMILES strings stand for the structures. Starred links: 1 amine or outer side, 2 acyl side, 3 side chain; linkers in the order of their positions; H or OH if unused. Positions of bridges follow the written chain, without caps; N, C: chain ends. Non-standard residues stand in square brackets, D forms with d. Residues, ends and D or L forms follow the SMILES beside them. Adda = CO[C@@H](Cc1ccccc1)[C@@H](C)/C=C(C)/C=C/[C@H](N[*:1])[C@H](C)C(=O)[*:2]; dAsp(3S-Me) = C[C@H](C(=O)[*:3])[C@@H](N[*:1])C(=O)[*:2]; d(γGlu) = O=C(O)[C@@H](CCC(=O)[*:2])N[*:1]; NMeDha = C=C(NC)C(=O)O

On to `CC=C1C(=O)N[C@@H](C(=O)O)[C@H](C)C(=O)N[C@@H](CCCNC(=N)N)C(=O)N[C@@H](/C=C/C(C)=C/[C@H](C)[C@H](Cc2ccccc2)OC)[C@H](C)C(=O)N[C@@H](C(=O)O)CCC(=O)N1C`, for which the ED50 in test [1] stood at 0.9 nM.
For the compound `C=C1C(=O)N[C@H](C)C(=O)N[C@@H](CC(C)C)C(=O)N[C@@H](C(=O)O)[C@H](C)C(=O)N[C@@H](C)C(=O)N[C@@H](/C=C/C(C)=C/[C@H](C)[C@H](Cc2ccccc2)OC)[C@H](C)C(=O)N[C@@H](C(=O)O)CCC(=O)N1C` (A[Adda][d(γGlu)][NMeDha][dA]L[dAsp(3S-Me)]-OH; lactam N-7), the ED50 was determined as 0.9 nM in test [2], 10.6 nM in test [3], 0.38 nM in test [4] and 10 nM in test [5].
As for `C=C1C(=O)N[C@H](C)C(=O)N[C@@H](CC(C)C)C(=O)N[C@@H](C(=O)O)[C@H](C)C(=O)N[C@@H](CCCNC(=N)N)C(=O)N[C@@H](/C=C/C(C)=C/[C@H](C)[C@H](Cc2ccccc2)OC)[C@H](C)C(=O)N[C@@H](C(=O)O)CCC(=O)N1C` (R[Adda][d(γGlu)][NMeDha][dA]L[dAsp(3S-Me)]-OH; lactam N-7), the ED50 in test [2] turned out to be 0.44 nM; in test [3], 7.8 nM; in test [4], 0.32 nM; in test [5], 5.2 nM; in test [1], 0.8 nM.
